Data published in ChEMBL document CHEMBL1151137, “Natural products as a source of potential cancer chemotherapeutic and chemopreventive agents” (1990).
In brackets after ≈: the same amount, converted by molar mass.

Tests used:
[1] = Cytotoxicity against mouse 9PS cells; assay type: functional; conditions: for EC50: Mus musculus, read-out: ED50 (the source's name)
[2] = test system: A549; experiment: Cytotoxicity against human A549 cells; assay type: functional; conditions: read-out: ED50 (the source's name)
[3] = test system: HT-29; experiment: Cytotoxicity against human HT-29 cells; assay type: functional; conditions: for EC50: Homo sapiens, HT-29, read-out: ED50 (the source's name)
[4] = Cytotoxicity against human 9KB cells; assay type: functional; conditions: read-out: ED50 (the source's name)
[5] = test system: MCF7; experiment: Cytotoxicity against human MCF7 cells; assay type: functional; conditions: read-out: ED50 (the source's name)
[6] = Chemopreventive activity in Chinese hamster embryonic cells assessed as inhibition of benzo[a]pyrene metabolism at 10 to 25 ug/ml; assay type: functional, Cricetulus griseus
[7] = Chemopreventive activity in Chinese hamster embryonic cells assessed as inhibition of benzo[a]pyrene metabolism to water soluble derivatives; assay type: functional, Cricetulus griseus; conditions: for IC50: Cricetulus griseus, read-out: ID50 (the source's name)
[8] = test system: P388; experiment: In vivo antitumor activity against mouse P388 cells at 20 mg/kg relative to control; assay type: functional
[9] = test system: P388; experiment: In vivo antitumor activity against mouse P388 cells at 50 mg/kg relative to control; assay type: functional

Which EC50 [1] does the source give for `CCCCCCCCCCCC[C@H](O)[C@@H]1CC[C@@H]([C@@H](O)CCCCC(=O)CCCCCC2CC(CC(C)=O)C(=O)O2)O1` (some centres undefined) [ISOANNONACINONE] here?
The EC50 was 0.5 mg/L (≈ 0.841 µM).

And the EC50 [2]?
Its EC50 is 0.07 mg/L (≈ 0.118 µM).

And the EC50 [3]?
Its EC50 is 0.009 mg/L (≈ 0.0151 µM).

For `O=C1C[C@@H]2c3ccccc3O[C@H]3c4cc(O)ccc4-c4c(O)cc(O)c1c4[C@H]23` [OHIOENSIN A], which EC50 [1] is on record?
Its EC50 is 1 mg/L (≈ 2.69 µM).

What about the EC50 [2] of the same molecule?
The EC50 was > 10 mg/L.

And the EC50 [3]?
Its EC50 is > 10 mg/L.

What about the EC50 [4] of the same molecule?
Its EC50 is > 10 mg/L.

What about the EC50 [5] of the same molecule?
Its EC50 is 9 mg/L (≈ 24.2 µM).

For `COc1ccc(-c2coc3cc(O)cc(O)c3c2=O)cc1` [BIOCHANIN], which “inhibition (INH)” value [6] is on record?
Its value is 30%.

And the IC50 [7]?
The IC50 was 25 mg/L (≈ 87.9 µM).

Which IC50 [7] does the source give for `O=c1c(-c2ccc(O)cc2)coc2cc(O)cc(O)c12` [GENISTEIN] here?
Its IC50 is 30 mg/L (≈ 111 µM).

Which results are given for `CCCCCCCCCCCC[C@@H](O)[C@H]1CC[C@H]([C@H](O)CCCC[C@H](O)CCCCC[C@@H](O)CC2=CC(C)OC2=O)O1` (some centres undefined) [ANNONACIN]?
ED50 [1]: 1 ×10⁻⁵ ug/ml; EC50 [2]: 0.001 mg/L (≈ 0.00168 µM); EC50 [3]: 3 mg/L (≈ 5.03 µM)

For `COc1cc2c(c3oc4c(O)cccc4c(=O)c13)C[C@H]([C@](C)(O)COC(C)=O)O2`, which EC50 [2] is on record?
The EC50 was 2 mg/L (≈ 5 µM).

What about the EC50 [3] of the same molecule?
The EC50 was 0.016 mg/L (≈ 0.04 µM).

What about the EC50 [5] of the same molecule?
Its EC50 is 2.5 mg/L (≈ 6.24 µM).

For `C[S+]([O-])C[C@@](C)(O)[C@H]1OC(=O)C=C2[C@@]13O[C@@H]3[C@H]1OC(=O)[C@@]3(C)[C@H]4O[C@H]4C[C@@]2(C)[C@@H]13` (some centres undefined) [PODOLACTONE C], which T/C [8] is on record?
Its T/C is 151%.

Which EC50 [2] does the source give for `COc1cc(C2Oc3c(OC)cc4c(=O)c5c(OC)cccc5oc4c3OC2CO)ccc1O` (centres undefined) here?
The EC50 was > 10 mg/L.

What about the EC50 [3] of the same molecule?
Its EC50 is > 10 mg/L.

What about the EC50 [5] of the same molecule?
Its EC50 is > 10 mg/L.

Which EC50 [2] does the source give for `COc1cc2c(c3oc4c(O)cccc4c(=O)c13)[C@@H]1OC[C@@](C)(O)[C@@H]1O2` [PSOROFEBRIN] here?
Its EC50 is > 10 mg/L.

And the EC50 [3]?
Its EC50 is 8.5 mg/L (≈ 23.9 µM).

What about the EC50 [5] of the same molecule?
The EC50 was > 10 mg/L.

For `COc1ccc(-c2cc(=O)c3c(O)cc(O)cc3o2)cc1` [ACACETIN], which IC50 [7] is on record?
The IC50 was 15 mg/L (≈ 52.8 µM).

With `O=c1cc(-c2ccccc2)oc2cc(O)cc(O)c12` [CHRYSIN] as the molecule, how does the IC50 [7] read?
Its IC50 is 12 mg/L (≈ 47.2 µM).

For `CC(C)c1oc(=O)cc2c1[C@@H](O)[C@H]1OC(=O)[C@@]3(C)[C@@H](O)[C@H]4O[C@H]4[C@@]2(C)[C@@H]13` [NAGILACTONE C], which T/C [8] is on record?
The T/C was 145%.

For `COc1cc(C2Oc3c(OC)cc4c(=O)c5ccccc5oc4c3OC2CO)cc(OC)c1O` (centres undefined), which EC50 [2] is on record?
Its EC50 is > 10 mg/L.

What about the EC50 [3] of the same molecule?
Its EC50 is > 10 mg/L.

And the EC50 [5]?
Its EC50 is > 10 mg/L.

Which EC50 [1] does the source give for `COc1cc(O)c2c3c1-c1c(ccc(O)c1O)[C@@H]1Oc4ccccc4[C@@H](CC2=O)[C@@H]31` [OHIOENSIN D] here?
Its EC50 is 1 mg/L (≈ 2.49 µM).

What about the EC50 [2] of the same molecule?
Its EC50 is > 10 mg/L.

And the EC50 [3]?
The EC50 was > 10 mg/L.

And the EC50 [4]?
Its EC50 is > 10 mg/L.

What about the EC50 [5] of the same molecule?
The EC50 was > 10 mg/L.

For `COc1cc(C2Oc3c(OC)cc4c(=O)c5c(OC)cccc5oc4c3OC2CO)cc(OC)c1O` (centres undefined), which EC50 [2] is on record?
Its EC50 is > 10 mg/L.

What about the EC50 [3] of the same molecule?
The EC50 was > 10 mg/L.

What about the EC50 [5] of the same molecule?
The EC50 was > 10 mg/L.

Which EC50 [2] does the source give for `COc1cc(C2Oc3ccc4c(=O)c5c(O)cc(O)cc5oc4c3OC2CO)cc(OC)c1O` (centres undefined) here?
The EC50 was 3 mg/L (≈ 6.4 µM).

And the EC50 [3]?
The EC50 was 0.4 mg/L (≈ 0.854 µM).

What about the EC50 [5] of the same molecule?
Its EC50 is > 10 mg/L.

What does the source list for `COc1cc(C2Oc3c(OC)cc4c(=O)c5ccccc5oc4c3OC2CO)ccc1O` (centres undefined)?
EC50 [2]: 3 mg/L (≈ 6.87 µM); EC50 [3]: 3 mg/L (≈ 6.87 µM); EC50 [5]: > 10 mg/L

With `COc1ccc(-c2coc3cc(OC)cc(O)c3c2=O)cc1` [4',7-DIMETHOXY-5-HYDROXYGENISTEIN] as the molecule, how does the IC50 [7] read?
Its IC50 is > 50 mg/L.

For `COc1ccc(-c2coc3cc(OC)cc(OC)c3c2=O)cc1` [BIOCHANIN A, DIMETHYL ETHER], which IC50 [7] is on record?
Its IC50 is 50 mg/L (≈ 160 µM).

With `COc1cc2c(c3oc4c(O)cccc4c(=O)c13)C[C@H]([C@@]1(C)CO1)O2` [PSOROSPERMIN] as the molecule, how does the EC50 [2] read?
Its EC50 is 0.0016 mg/L (≈ 0.0047 µM).

And the ED50 [3]?
Its ED50 is >1 ×10⁻⁵ ug/ml.

And the EC50 [5]?
Its EC50 is 0.012 mg/L (≈ 0.0353 µM).

Which EC50 [1] does the source give for `CCCCCCCCCCCC[C@H](O)[C@@H]1CC[C@@H]([C@@H](O)CCCCC(O)CCCCCC2CC(CC(C)=O)C(=O)O2)O1` (some centres undefined) [ISOANNONACIN] here?
The EC50 was 3 mg/L (≈ 5.03 µM).

What about the EC50 [2] of the same molecule?
The EC50 was 0.02 mg/L (≈ 0.0335 µM).

What about the EC50 [3] of the same molecule?
Its EC50 is 0.002 mg/L (≈ 0.00335 µM).

For `CC(C)[C@H]1OC(=O)C=C2[C@@]13O[C@@H]3[C@H]1OC(=O)[C@@]3(C)C=CC[C@@]2(C)[C@@H]13` [PODOLIDE], which T/C [9] is on record?
Its T/C is 127%.

Which “inhibition (INH)” value [7] does the source give for `COc1cccc(C/C(=N/OS(=O)(=O)O)S[C@@H]2O[C@H](CO)[C@@H](O)[C@H](O)[C@H]2O)c1` [GLUCOLIMNANTHIN] here?
The value was 71%.

What does the source list for `COc1cc2c(c3oc4c(O)cccc4c(=O)c13)C[C@H]([C@](C)(O)CO)O2`?
EC50 [2]: > 10 mg/L; EC50 [3]: 2.3 mg/L (≈ 6.42 µM); EC50 [5]: > 10 mg/L

Which EC50 [1] does the source give for `O=C1C[C@@H]2c3ccccc3O[C@H]3c4cccc(O)c4-c4c(O)cc(O)c1c4[C@H]23` [OHIOENSIN B] here?
Its EC50 is 1 mg/L (≈ 2.69 µM).

What about the EC50 [2] of the same molecule?
Its EC50 is 8 mg/L (≈ 21.5 µM).

What about the EC50 [3] of the same molecule?
Its EC50 is > 10 mg/L.

And the EC50 [4]?
The EC50 was > 10 mg/L.

What about the EC50 [5] of the same molecule?
The EC50 was 7 mg/L (≈ 18.8 µM).

For `COc1ccc2c(c1O)-c1c(OC)cc(O)c3c1[C@@H]1[C@H](CC3=O)c3ccccc3O[C@@H]21` [OHIOENSIN E], which EC50 [1] is on record?
Its EC50 is 1 mg/L (≈ 2.4 µM).

What about the EC50 [2] of the same molecule?
The EC50 was 6 mg/L (≈ 14.4 µM).

What about the EC50 [3] of the same molecule?
Its EC50 is > 10 mg/L.

What about the EC50 [4] of the same molecule?
The EC50 was > 10 mg/L.

And the EC50 [5]?
The EC50 was > 10 mg/L.

With `COc1cc(O)c2c3c1-c1c(O)cccc1[C@@H]1Oc4ccccc4[C@@H](CC2=O)[C@@H]31` [OHIOENSIN C] as the molecule, how does the EC50 [1] read?
Its EC50 is > 10 mg/L.

And the EC50 [2]?
Its EC50 is > 10 mg/L.

What about the EC50 [3] of the same molecule?
Its EC50 is 4 mg/L (≈ 10.4 µM).

And the EC50 [4]?
Its EC50 is 10 mg/L (≈ 25.9 µM).

And the EC50 [5]?
The EC50 was 3 mg/L (≈ 7.76 µM).

For `COc1cc(C2Oc3c(OC)cc4c(=O)c5c(OC)cccc5oc4c3OC2COC(C)=O)ccc1O` (centres undefined), which EC50 [2] is on record?
Its EC50 is 4 mg/L (≈ 7.87 µM).

What about the EC50 [3] of the same molecule?
Its EC50 is 4 mg/L (≈ 7.87 µM).

And the EC50 [5]?
Its EC50 is > 10 mg/L.

Which ED50 [1] does the source give for `CCCCCCCCCCCC[C@@H](O)[C@H]1CC[C@H]([C@H](O)CCCCC(=O)CCCCC[C@@H](O)CC2=C[C@H](C)OC2=O)O1` [ANNONACINONE] here?
The ED50 was 1 ×10⁻⁶ ug/ml.

And the EC50 [2]?
Its EC50 is 0.1 mg/L (≈ 0.168 µM).

And the EC50 [3]?
The EC50 was 1 mg/L (≈ 1.68 µM).

Which IC50 [7] does the source give for `O=c1cc(-c2ccc(O)cc2)oc2cc(O)cc(O)c12` [APIGENIN] here?
Its IC50 is 17 mg/L (≈ 62.9 µM).
